According to paper PMC10674865, “Identification and Pharmacological Characterization of a Low-Liability Antinociceptive Bifunctional MOR/DOR Cyclic Peptide” (Molecules, 2023):
pEC50: −log10 of the molar value. Marks after values point to notes of the source that are not given here. Positions of bridges follow the written chain, without caps; N, C: chain ends. Non-standard residues stand in square brackets, D forms with d. Residues, ends and D or L forms follow the SMILES beside them. 2Abz = Nc1ccccc1C(=O)O; Dap = NC[C@H](N)C(=O)O

How the values were obtained:
C57BL/6J mice [1] = assay: Respiration rate in CLAMS apparatus; format: in vivo, mouse; conditions: CycloAnt 3.0 or 10.6 mg/kg i.p.; morphine 10 or 30 mg/kg i.p.; 120 min period
Experimental: (§1) Male C57Bl/6J mice were tested for respiratory effects using automated, computer-controlled Comprehensive Lab Animal Monitoring System (CLAMS) apparatus. Mice (n = 8) were habituated in closed apparatus cages (23.5 × 11.5 × 13 cm^3) for 30 min before being administrated with the hit i.p. at the experimented high dose of 3.0 mg/kg, and an even higher dose at 15 times of the ED50 value, 10.6 mg/kg, i.p. Mice were then returned to chambers, and their respiration rate (breaths/min) was measured for […] in 30 s intervals using a pressure transducer built into the enclosed, sealed CLAMS cage. The resultant change in pressure during mouse breathing was recorded to reveal the respiration rate (breaths/min).
(§2) Infrared beams located in the floor measured locomotion as the number of beam breaks. Respiration and locomotive data were averaged over 20 min periods for 120 min post-injection of the test compound. Data are presented as % vehicle response ± SEM, ambulation or breaths per minute.

[2] = test system: panel of 47 protein targets, including GPCRs, kinases, nuclear hormone receptors, ion channels, and enzymes; assay: Eurofins DiscoverX SAFETYscan Safety47 panel, agonist and antagonist modes; conditions: 78 assays at 47 targets, other than MOR and DOR
Experimental: (§3) The potential interaction of CycloAnt with a panel of 47 protein targets, including GPCRs, kinases, nuclear hormone receptors, ion channels, and enzymes, was assessed by assays included in the SAFETYscan service from Eurofins DiscoverX. CycloAnt was tested in both agonist and antagonist modes for each representative GPCRs (see Supplemental Material S9–S11).
(§4) CycloAnt interactions with a broad set of molecular targets were determined with the Safety47 Panel Dose Response, using the SAFETYscan provided by Eurofins DiscoverX. This panel utilizes 78 assays at 47 protein targets, including GPCRs, kinases, nuclear hormone receptors, ion channels, and enzymes. […] CycloAnt only interacted with MOR and DOR in the panel, showing agonist activity at both receptors using the cAMP assay. […] This discrepancy on the function at DOR may be accounted for receptor reserve, as a very weak partial agonist/antagonist can appear as a full agonist when receptor reserve is present. […] Regardless, consistent with the SAFETYscan results, CycloAnt was not found to produce any significant biological activity at any other targets in this study than DOR and MOR.

mice [3] = assay: Naloxone-precipitated opioid withdrawal (physical dependence); format: in vivo, mouse; conditions: for Forepaw Tremor: CycloAnt 3 mg/kg (n = 9) or morphine 10 mg/kg (n = 10) i.p. twice daily 4 days + day 5, naloxone 10 mg/kg i.p. 120 min later, scored 15 min, average; for Forepaw Licking Frequency / Jumping Frequency / Number of soft stools / Presence of diarrhea / Rearing Frequency / Straightening / Teeth Chattering Frequency / Wet Dog Shakes: as E25
Experimental: (§5) Mice were randomly assigned to one of three groups and given saline (i.p.; n = 10), morphine (10 mg/kg, i.p.; n = 10) or CycloAnt (3 mg/kg, i.p.; n = 9) twice daily for 4 days, and once more on the morning of the fifth day. Mice were then tested in the 55 °C WWTW assay to assess for the loss of therapeutic efficacy (antinociceptive tolerance; see above). Two hours after this test, naloxone (10 mg/kg, i.p.) was administrated to all mice to precipitate opioid withdrawal. Mouse activity was digitally recorded and evaluated later for an established record of withdrawal behaviors for 15 min [39]. Immediately upon injection of naloxone, all mice were scored for number of jumps, forepaw tremor, wet dog shakes, straightening, rearing, forepaw licking, teeth chattering, and the presence (as +/−) and number of soft stools.

mice [4] = assay: Opioid-induced hyperalgesia, 48 °C warm water tail-withdrawal assay; format: in vivo, mouse; conditions: for Day 5 tail withdrawal latency, 48 °C warm water stimulus: after twice daily dosing for 4 days (morphine 10 mg/kg, CycloAnt 3 mg/kg i.p.), before day 5 dose, day 1 baselines 10 ± 1.14 s (morphine group), 9.1 ± 0.68 s (CycloAnt group), mean ± SEM, SEM; for Opioid-induced hyperalgesia after chronic administration: twice daily for 4 days, morphine 10 mg/kg, CycloAnt 3 mg/kg i.p., 48 °C
Experimental: The 48 °C warm water tail-withdrawal assay was performed as previously described, with the latency to withdraw the tail taken as the end point. The water temperature of 48 °C was selected for this work to ensure a moderate tail-withdrawal response, with a measurable decrease in withdrawal time possible, but also a significant temperature for hyperalgesic testing. […] After determining control latencies on day 1, mice received chronic morphine (10 mg/kg, i.p.) or CycloAnt (3 mg/kg, i.p.) treatment twice a day for 4 days, as described below. […] Mice were then tested prior to treatment on day 5 for evidence of induced hyperalgesia.

DOR = DOR (Homo sapiens, UniProt P41143); assay: SAFETYscan cAMP assay, agonist mode, cells overexpressing DOR; format: cell-based; conditions: cells overexpressing receptor, read-out: DOR agonism EC50
Sequence of DOR (P41143 whole entry): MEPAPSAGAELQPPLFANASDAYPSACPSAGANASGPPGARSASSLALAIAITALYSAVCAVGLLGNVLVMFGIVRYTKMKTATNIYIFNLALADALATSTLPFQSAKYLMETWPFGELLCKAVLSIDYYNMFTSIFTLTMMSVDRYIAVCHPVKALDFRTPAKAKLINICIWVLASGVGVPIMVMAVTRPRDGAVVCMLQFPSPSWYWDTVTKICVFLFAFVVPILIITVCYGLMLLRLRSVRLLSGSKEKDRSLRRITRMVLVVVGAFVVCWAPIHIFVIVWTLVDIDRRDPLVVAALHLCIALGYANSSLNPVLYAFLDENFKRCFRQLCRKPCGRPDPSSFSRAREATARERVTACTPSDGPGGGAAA
Experimental: as §3, §4

mice [5] = assay: Antinociceptive tolerance after chronic dosing, 55 °C WWTW; format: in vivo, mouse; conditions: twice daily for 4 days, morphine 10 mg/kg (tested 30 min), CycloAnt 3 mg/kg i.p. (tested 20 min)
Experimental: as §5

MOR [6] = target: T1, MOR (Homo sapiens, UniProt P35372); assay: SAFETYscan cAMP assay, agonist mode, cells overexpressing MOR; format: cell-based; conditions: cells overexpressing receptor, read-out: MOR agonism EC50
T1 sequence (P35372 whole entry): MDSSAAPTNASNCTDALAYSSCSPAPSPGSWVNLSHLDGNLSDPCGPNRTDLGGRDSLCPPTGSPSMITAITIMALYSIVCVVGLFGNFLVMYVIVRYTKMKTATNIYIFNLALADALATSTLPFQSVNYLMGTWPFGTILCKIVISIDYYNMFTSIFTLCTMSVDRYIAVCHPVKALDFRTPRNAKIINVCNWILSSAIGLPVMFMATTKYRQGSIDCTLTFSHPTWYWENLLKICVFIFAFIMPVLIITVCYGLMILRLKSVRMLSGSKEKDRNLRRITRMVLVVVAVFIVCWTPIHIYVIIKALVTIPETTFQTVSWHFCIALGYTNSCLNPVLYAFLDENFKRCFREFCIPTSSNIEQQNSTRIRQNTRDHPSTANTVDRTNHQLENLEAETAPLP
Experimental: as §3, §4

C57BL/6J mice [7] = assay: Ambulation (hyperlocomotion) in CLAMS apparatus; format: in vivo, mouse; conditions: for Effect on ambulation (hyperlocomotion): CycloAnt 3 or 10.6 mg/kg i.p., morphine 10 or 30 mg/kg i.p., 120 min
Experimental: as §1, §2

C57BL/6J male mice = assay: 55 °C warm water tail-withdrawal (WWTW) assay, antinociception; format: in vivo, mouse
Experimental: The 55 °C warm water tail-withdrawal assay was performed, as previously described, [52] to screen the library. Mixed-based samples were dissolved at a concentration of 5 mg/mL in saline containing 10% DMSO. Each sample was given to mice (n = 8) intraperitoneally (i.p.) at a dose of 5 mg/kg. At 0.5, 1, 2, 3.5, 5, 8 h post-administration of the samples, the tail-withdrawal latencies were measured for each sample. The average response time to tail-withdrawal at the six time points were then combined. The combined response time to withdrawal tail was used to determine the antinociceptive effect of each sample. A cutoff of 15 s was used to avoid tissue damage; those mice failing to withdraw their tails within this time were assigned a maximal antinociceptive score of 100%.
To determine antinociceptive activity of individual compounds, the tail-withdrawal latency was determined repeatedly every 10 min, following administration of the compounds for 1 h or until latencies returned to baseline values. At each time point, antinociception was calculated according to the following formula: % antinociception = 100 × (test latency − control latency)/(15 − control latency). Tail-withdrawal data points are the means of 8–16 mice, unless otherwise indicated, with SEM shown by error bars.
Percent antinociception was used to determine within-group effects and to allow comparison to baseline latency in tail-withdrawal experiments. The statistical significance of differences between ED50 values was determined by evaluation of the ED50 value shift via nonlinear regression modeling with Prism 10.0 software. Significant differences in behavioral data were analyzed by ANOVA (one-way or two-way with repeated measures (RM), as appropriate). Significant results were further analyzed with Sidak’s, Tukey’s, or Dunnett’s multiple comparison post hoc tests, as appropriate. All data are presented as mean ± SEM, with significance set at p < 0.05.

MOR [8] = target: T1, MOR; conditions: receptor-binding assay; cited from earlier work
Source text: However, that cyclic peptide has a sequence of Tyr-[D-Lys-Dap(Ant)-Tyr-Gly], differing from the sequence Tyr-[D-Lys-Dap(Ant)-Thr-Gly] identified in this study. The di ...

## C[C@@H](O)[C@@H]1NC(=O)[C@H](CNC(=O)c2ccccc2N)NC(=O)[C@H](NC(=O)[C@@H](N)Cc2ccc(O)cc2)CCCCNC(=O)CNC1=O [CycloAnt, Tyr-[D-Lys-Dap(Ant)-Thr-Gly]] (H-Y[dK][Dap](2Abz)TG; lactam 2-C)
C57BL/6J mice [1]
  Effect on breathing rate compared to vehicle: did not significantly impair breathing
[2]
  Agonist or antagonist activity at other panel targets: did not produce agonist or antagonist activity at any other target tested in this panel
Mice [3]
  Forepaw Tremor: 23.7 †
  Forepaw Licking Frequency: 11.2 †
  Jumping Frequency: 1.89 †
  Number of soft stools: 6.67 *
  Presence of diarrhea: yes
  Rearing Frequency: 17.8 *
  Straightening: 1.22
  Teeth Chattering Frequency: 0 †
  Wet Dog Shakes: 2.22
Mice [4]
  Day 5 tail withdrawal latency, 48 °C warm water stimulus: 9.02 ± 0.83 s
  Opioid-induced hyperalgesia after chronic administration: did not induce significant OIH
DOR
  pEC50: 8.47
Mice [5]
  Antinociceptive tolerance on day 5: significant reductions in the tail-withdrawal latency
MOR [6]
  pEC50: 7.85
C57BL/6J mice [7]
  Effect on ambulation (hyperlocomotion): induced significant hyperlocomotor activity
C57BL/6J mice [7]; after 20 min to end of testing period, p < 0.05 Tukey
  Ambulation compared with morphine: significantly less than those induced by morphine

## Leu-[D-Lys-Dap(Ant)-Thr-Gly] (lariat or depsi) [CycloAnt-Leu, side-to-tail cyclic pentapeptide analog]
C57BL/6J male mice; CycloAnt 3 mg/kg i.p., CycloAnt-Leu 100 mg/kg i.p., p < 0.05 Dunnett
  Duration of significant antinociception compared to vehicle: 50 min
C57BL/6J male mice; i.p., 55 °C WWTW
  Fold less potent than morphine (ED50): 9.3 fold
  Time of peak antinociception after administration: ≤ 20 min
C57BL/6J male mice; i.p., male C57BL/6J mice, 55 °C WWTW, at peak effect (morphine 30 min)
  Antinociceptive ED50 (and 95% confidence interval): 38.3 (18.7–127.1) mg/kg

## Tyr-[D-Lys-Dap(Ant)-Tyr-Gly]
MOR [8]
  Binding affinity for the MOR: 14 nM

## CN1CC[C@]23c4c5ccc(O)c4O[C@H]2[C@@H](O)C=C[C@H]3[C@H]1C5 [morphine, reference compound]
C57BL/6J mice [1]
  Effect on breathing rate compared to vehicle: produced significant dose and time-dependent respiratory depression
Mice [3]
  Forepaw Tremor: 66 *
  Forepaw Licking Frequency: 1.7 *
  Jumping Frequency: 41.6 *
  Number of soft stools: 5.4 *
  Presence of diarrhea: yes
  Rearing Frequency: 22.2 *
  Straightening: 1.1
  Teeth Chattering Frequency: 9.5 *
  Wet Dog Shakes: 1.3
Mice [4]
  Day 5 tail withdrawal latency, 48 °C warm water stimulus: 4.35 ± 0.47 s
  Opioid-induced hyperalgesia after chronic administration: induced significant hyperalgesia
Mice [5]
  Antinociceptive tolerance on day 5: significant reductions in the tail-withdrawal latency
C57BL/6J male mice; Mus musculus, ip, 0.5 h, i.p., male C57BL/6J mice, 55 °C WWTW, at peak effect (morphine 30 min), read-out: Antinociceptive ED50 (and 95% confidence interval)
  ED50: 4.12 mg/kg
C57BL/6J male mice; i.p., 55 °C WWTW
  Time of peak antinociception after administration: 30 min
C57BL/6J mice [7]
  Effect on ambulation (hyperlocomotion): significantly increased ambulation
